“And” between values parts separate entries of the source, which are not always exact repeats. Equal values may be shown once. Inconclusive results and toxic doses are left out. Rule as the data show it: active = T/C of 150% or more; inactive = T/C below 125%.
Test system: L1210 leukemia ip in BDF1 mice, survival T/C
Assay: NCI In Vivo Anticancer Drug Screen. Data for tumor model L1210 Leukemia (intraperitoneal) in B6D2F1 (BDF1) mice
Conditions: endpoint: mean survival time, higher = longer survival
Description: The antitumor activity of compounds was measured in mice bearing transplantable tumors. Survival or tumor size were measured and the results are expressed as the measurement made in the treated group (T) divided by the measurement made in the vehicle treated control group (C). The tumor model used in this assay is L1210 Leukemia (intraperitoneal) in B6D2F1 (BDF1) mice

[1] = dose: 100.0 mg/kg/injection, schedule: Q04DX003 (ip), vehicle: saline with Tween-80
[2] = dose: 200.0 mg/kg/injection, schedule: Q04DX003 (ip), vehicle: saline with Tween-80
[3] = dose: 400.0 mg/kg/injection, schedule: Q04DX003 (ip), vehicle: saline with Tween-80
[4] = dose: 10.0 mg/kg/injection, schedule: Q01DX001 (ip), vehicle: saline
[5] = dose: 20.0 mg/kg/injection, schedule: Q01DX001 (ip), vehicle: saline
[6] = dose: 40.0 mg/kg/injection, schedule: Q01DX001 (ip), vehicle: saline
[7] = dose: 100.0 mg/kg/injection, schedule: Q01DX001 (ip), vehicle: carboxymethylcellulose (CMC)
[8] = dose: 200.0 mg/kg/injection, schedule: Q01DX001 (ip), vehicle: carboxymethylcellulose (CMC)
[9] = dose: 400.0 mg/kg/injection, schedule: Q01DX001 (ip), vehicle: carboxymethylcellulose (CMC)
[10] = dose: 100.0 mg/kg/injection, schedule: Q04DX003 (ip), vehicle: Klucel (hydroxypropylcellulose) (HPC)
[11] = dose: 200.0 mg/kg/injection, schedule: Q04DX003 (ip), vehicle: Klucel (hydroxypropylcellulose) (HPC)
[12] = dose: 400.0 mg/kg/injection, schedule: Q04DX003 (ip), vehicle: Klucel (hydroxypropylcellulose) (HPC)
[13] = dose: 100.0 mg/kg/injection, schedule: Q01DX009 (ip), vehicle: Klucel (hydroxypropylcellulose) (HPC)
[14] = dose: 200.0 mg/kg/injection, schedule: Q01DX009 (ip), vehicle: Klucel (hydroxypropylcellulose) (HPC)
[15] = dose: 400.0 mg/kg/injection, schedule: Q01DX009 (ip), vehicle: Klucel (hydroxypropylcellulose) (HPC)
[16] = dose: 5.0 mg/kg/injection, schedule: Q01DX001 (ip), vehicle: saline
[17] = dose: 100.0 mg/kg/injection, schedule: Q01DX009 (ip), vehicle: saline with Tween-80
[18] = dose: 200.0 mg/kg/injection, schedule: Q01DX009 (ip), vehicle: saline with Tween-80

Measured: T/C

CCC(c1ccc(OC)cc1)C(CC)c1ccc(O)c(CN2CCN(C)CC2)c1 (stereo unspecified)
inactive: [1] 94 % of control | [2] 94 % of control | [3] 94 % of control

CCCCCCCCCCCCCCCCC1=NCCN1
inactive: dose: 5.0 mg/kg/injection, schedule: Q01DX009 (ip), vehicle: saline 91 % of control | [4] 94 % of control | dose: 10.0 mg/kg/injection, schedule: Q01DX009 (ip), vehicle: saline 91 % of control | dose: 10.0 mg/kg/injection, schedule: Q04DX003 (ip), vehicle: saline 94 % of control | [5] 97 % of control | dose: 20.0 mg/kg/injection, schedule: Q01DX009 (ip), vehicle: saline 88 % of control | dose: 20.0 mg/kg/injection, schedule: Q04DX003 (ip), vehicle: saline 93 % of control and 90 % of control | [6] 101 % of control | dose: 40.0 mg/kg/injection, schedule: Q04DX003 (ip), vehicle: saline 95 % of control and 88 % of control

CCCCCCCCCCCC(=O)Nc1ccc(SSc2ccc(NC(=O)CCCCCCCCCCC)cc2)cc1
inactive: dose: 50.0 mg/kg/injection, schedule: Q01DX001 (ip), vehicle: carboxymethylcellulose (CMC) 97 % of control | [7] 103 % of control | [8] 90 % of control | [9] 101 % of control

O=[N+]([O-])c1cccc(C=Nc2cccc([N+](=O)[O-])c2)c1
inactive: dose: 100.0 mg/kg/injection, schedule: Q04DX003 (ip), vehicle: gum acacia 95 % of control | dose: 200.0 mg/kg/injection, schedule: Q04DX003 (ip), vehicle: gum acacia 93 % of control | dose: 400.0 mg/kg/injection, schedule: Q04DX003 (ip), vehicle: gum acacia 98 % of control

O=S(=O)(Nc1ccc(NS(=O)(=O)c2ccccc2)cc1)c1ccccc1
inactive: dose: 100.0 mg/kg/injection, schedule: Q01DX009 (ip), vehicle: saline sonified 97 % of control | [10] 93 % of control | dose: 200.0 mg/kg/injection, schedule: Q01DX009 (ip), vehicle: saline sonified 104 % of control | [11] 98 % of control | dose: 400.0 mg/kg/injection, schedule: Q01DX009 (ip), vehicle: saline sonified 98 % of control | [12] 90 % of control

O=C1CCCC/C1=C/c1ccccc1
inactive: [13] 102 % of control and 112 % of control | [10] 97 % of control and 96 % of control | [14] 102 % of control | [11] 104 % of control and 101 % of control | [15] 102 % of control and 96 % of control | [12] 104 % of control and 100 % of control

NC(=S)N=Nc1c(O)cc(O)c2[nH]c(=O)ccc12
inactive: [16] 101 % of control | [4] 101 % of control | [5] 103 % of control | [6] 105 % of control | dose: 80.0 mg/kg/injection, schedule: Q01DX001 (ip), vehicle: saline 108 % of control

Cn1c(O)c(C=N)c(=O)[nH]c1=O
inactive: dose: 100.0 mg/kg/injection, schedule: Q01DX009 (ip), vehicle: saline 86 % of control | dose: 100.0 mg/kg/injection, schedule: Q04DX003 (ip), vehicle: saline 90 % of control | dose: 200.0 mg/kg/injection, schedule: Q01DX009 (ip), vehicle: saline 88 % of control | dose: 200.0 mg/kg/injection, schedule: Q04DX003 (ip), vehicle: saline 92 % of control | dose: 400.0 mg/kg/injection, schedule: Q01DX009 (ip), vehicle: saline 86 % of control | dose: 400.0 mg/kg/injection, schedule: Q04DX003 (ip), vehicle: saline 90 % of control

NC(N)=N/N=C/C(F)(F)F
inactive: dose: 15.0 mg/kg/injection, schedule: Q01DX Z (ip), vehicle: methylcellulose (MC) 105 % of control | dose: 30.0 mg/kg/injection, schedule: Q01DX Z (ip), vehicle: methylcellulose (MC) 102 % of control | dose: 60.0 mg/kg/injection, schedule: Q01DX Z (ip), vehicle: methylcellulose (MC) 112 % of control | dose: 60.0 mg/kg/injection, schedule: Q01DX Z (oral), vehicle: methylcellulose (MC) 92 % of control | dose: 120.0 mg/kg/injection, schedule: Q01DX Z (ip), vehicle: methylcellulose (MC) 97 % of control | dose: 120.0 mg/kg/injection, schedule: Q01DX Z (oral), vehicle: methylcellulose (MC) 93 % of control | dose: 240.0 mg/kg/injection, schedule: Q01DX Z (ip), vehicle: methylcellulose (MC) 88 % of control | dose: 240.0 mg/kg/injection, schedule: Q01DX Z (oral), vehicle: methylcellulose (MC) 102 % of control | dose: 420.0 mg/kg/injection, schedule: Q01DX Z (ip), vehicle: methylcellulose (MC) 88 % of control | dose: 480.0 mg/kg/injection, schedule: Q01DX Z (oral), vehicle: methylcellulose (MC) 95 % of control

O/N=C1\c2cc(Cl)ccc2-c2c(Cl)cc(Cl)cc21
inactive: [7] 115 % of control | [8] 100 % of control | [9] 97 % of control

NC(=O)Nc1cccc(C(=O)O)c1
inactive: [13] 89 % of control | [10] 92 % of control | [14] 87 % of control | [11] 92 % of control | [15] 87 % of control | [12] 96 % of control

COc1ccc(CCNC(=O)c2ccccc2N)cc1OC
inactive: dose: 100.0 mg/kg/injection, schedule: Q01DX001 (ip), vehicle: saline with Tween-80 97 % of control | [17] 90 % of control and 91 % of control | dose: 100.0 mg/kg/injection, schedule: Q04DX002 (ip), vehicle: saline with Tween-80 98 % of control | [1] 105 % of control | dose: 200.0 mg/kg/injection, schedule: Q01DX001 (ip), vehicle: saline with Tween-80 98 % of control | [18] 95 % of control and 109 % of control | dose: 200.0 mg/kg/injection, schedule: Q04DX002 (ip), vehicle: saline with Tween-80 98 % of control | [2] 92 % of control | dose: 400.0 mg/kg/injection, schedule: Q01DX001 (ip), vehicle: saline with Tween-80 106 % of control | dose: 400.0 mg/kg/injection, schedule: Q01DX009 (ip), vehicle: saline with Tween-80 90 % of control and 91 % of control | dose: 400.0 mg/kg/injection, schedule: Q04DX002 (ip), vehicle: saline with Tween-80 95 % of control | [3] 95 % of control

C[n+]1cccc2cc(Br)ccc21
inactive: dose: 5.0 mg/kg/injection, schedule: Q01DX001 (ip), vehicle: other 100 % of control | dose: 10.0 mg/kg/injection, schedule: Q01DX001 (ip), vehicle: other 107 % of control | dose: 20.0 mg/kg/injection, schedule: Q01DX001 (ip), vehicle: other 111 % of control | dose: 40.0 mg/kg/injection, schedule: Q01DX001 (ip), vehicle: other 105 % of control

Cc1cc(N=Nc2c(C)ccc3ncccc23)ccc1N
inactive: dose: 3.12 mg/kg/injection, schedule: Q01DX001 (ip), vehicle: DMSO 90 % of control | dose: 6.25 mg/kg/injection, schedule: Q01DX001 (ip), vehicle: DMSO 98 % of control | dose: 12.5 mg/kg/injection, schedule: Q01DX001 (ip), vehicle: DMSO 98 % of control

c1ccc([P+](c2ccccc2)(c2ccccc2)C2CC2)cc1
inactive: [16] 93 % of control | [4] 101 % of control | [5] 104 % of control | [6] 104 % of control

CCOC(=O)Cn1c(=O)c2ccccc2c2cc(Br)ccc21
inactive: dose: 100.0 mg/kg/injection, schedule: Q01DX001 (ip), vehicle: Klucel (hydroxypropylcellulose) (HPC) 89 % of control | dose: 200.0 mg/kg/injection, schedule: Q01DX001 (ip), vehicle: Klucel (hydroxypropylcellulose) (HPC) 100 % of control | dose: 400.0 mg/kg/injection, schedule: Q01DX001 (ip), vehicle: Klucel (hydroxypropylcellulose) (HPC) 92 % of control

Cc1ccc(C(=O)NCCCOc2ccc(N)cc2Cl)cc1S(=O)(=O)F
inactive: dose: 50.0 mg/kg/injection, schedule: Q01DX009 (ip), vehicle: saline with Tween-80 104 % of control | [17] 95 % of control | [1] 103 % of control | [18] 90 % of control | [2] 94 % of control | [3] 105 % of control

C[Si](C)(C)Oc1cccc(O[Si](C)(C)C)c1
inactive: [1] 95 % of control | [2] 96 % of control | [3] 93 % of control

Source: PubChem BioAssay AID248 (DTP/NCI, 2004)
